Series [1] concerns metastatic colorectal cancer cell line (L-2). The series is described as follows: Expression of metastasis related biomarkers. In kind it is cell-based. Conditions: L-2 cells, 0 μM to 4 μM. The method, then: of non-metastatic cancer, thereby making it very difficult to treat it. A colorectal cancer cell line (C-1) was injected into appendix of laboratory mice and left for 6 weeks to artificially induce growth and metastasis of tumor, and colorectal cancer cells metastasized to the liver (L-2) were isolated and cultured. After administering 0 μM to 4 μM of lenziamide A to colorectal cancer cell line (C-1) and metastatic colorectal cancer cell line (L-2) obtained above, expression of biomarkers related to metastasis of cancer was identified by reverse transcription polymerase chain reaction (RT-PCR), and the results are shown in FIG. 6A.

For the next series, the system named is HCT116 cells. The series is described as follows: Annexin V/propidium iodide dual-stain analysis. The series is classed as cell-based, human. The method, then:
In order to confirm that sub G1 cell accumulation due to G2/M arrest effect of lenziamide A leads to cell apoptosis, HCT116 cells were treated with different concentrations of lenziamide A. Thereafter, cell death induction efficacy of lenziamide A was evaluated by using Annexin V/propidium iodide dual-stain analysis method which can identify cell deaths. The results of Annexin V/propidium iodide dual-stain analysis were shown in FIG. 3A, and stages of cells according to the concentration of lenziamide A were shown in FIG. 3B. The ratios (%) of live cells, early apoptosis, late apoptosis, necrosis, and total cell death were calculated.

Series [2] deals with HCT116-5-FU resistant cell line. Kind of series: SRB cell growth inhibition, 5-fluorouracil resistant HCT116-5-FU. The method, then: (§1) With Lenziamide compound prepared as in Example 1 added, the cell lines were cultured for about 72 hours. Thereafter, the resulting cell cultures were stained with sulforhodamine (SRB) that […] and washed to remove non-binding dye, and the stained cells were suspended in 10 mM of Tris (pH 10.0). The absorbance was measured at 515 nm and the cell proliferation was measured. Using TableCurve 2D v5.01 software (Systant Software Inc., Richmond, CA, USA), half maximal inhibitory concentration (IC50) value was calculated by nonlinear regression analysis method. All reagents were purchased from Sigma-Aldrich. As a positive control, etoposide was used.
In order to prepare HCT116-5-FU resistant cell line, 5-fluorouracil was treated to HCT116 cells 3 times a week, and only surviving cells were subcultured with treatment of increasing concentrations of 5-fluorouracil for 3 months. HCT116-5-FU resistant cell line was established by finally collecting and culturing only the surviving cells.

The subject of series [3] is colorectal cancer cell line HCT116. Kind of series: Cell cycle analysis by flow cytometry. The series is classed as cell-based, human. The protocol:
In order to identify the action mechanism of lenziamide A showing an excellent cell proliferation inhibiting efficacy, cells of colorectal cancer cell line HCT116 were treated with lenziamide A at a concentration of 0 μM, 1.25 μM, 2.5 μM, or […]. The cell cycle control effect of lenziamide A was confirmed by using flow cytometry method, and the results are shown in FIGS. 2A and 2B.
On the technique in general: In flow cytometry, cells or beads pass a laser one at a time.

Series [4] concerns metastatic colorectal cancer cell line (L-2). The series is described as follows: Metastatic colorectal cancer cell (L-2) injected animal model. The series is classed as in vivo, laboratory mice. Conditions: 5 mg/kg or 15 mg/kg. The protocol:
As described in Example 2-7 (1), a metastatic colorectal cancer cell line (L-2) was re-injected into appendix of laboratory mice to form tumor, and lenziamide A was administered at a dose of 5 mg/body weight kg or 15 mg/body weight kg. A mixture mixed at a ratio of dimethyl sulfoxide: Cremophor: saline=0.5:0.5:9 was used as a negative control. 10 mg/body weight kg of irinotecan was administered as a positive control. Volumes of tumor (mm3) and body weights of the xenograft animal model (g) were measured from the first day of administration, and the results are shown in FIGS. 6B and 6C.

In series [5] the test system is HCT116-5-FU resistant cell line xenograft. Kind of series: HCT116-5-FU resistant xenograft animal model. The conditions noted are these: 10 mg/kg intravenous. The series is classed as in vivo, BALB/c mice. The protocol: HCT116-5-FU resistant cell line prepared as described in Example 2-5 was diluted to a concentration of […] in RPMI medium, and 0.2 mL of the diluted cell line was injected subcutaneously to right flanks of BALB/c mice (5-week old, male). When the size of the tumor reached about 100 mm^3, groups were randomly divided based on the size of the tumor.
Lenziamide A (10 mg/body weight kg), 5-FU (30 mg/body weight kg), or a combination thereof (10 mg/body weight kg of lenziamide A+30 mg/body weight kg of 5-FU) was administered by intravenous injection to resistant cancer cell line injected xenograft animal models. A mixture mixed at a ratio of dimethyl sulfoxide: Cremophor: saline=0.5:0.5:9 was used as a negative control. Volumes of tumor (mm^3) and body weights of the xenograft animal models (g) were measured from the first day of administration, and the results are shown in FIGS. 5A and 5B.

Series [6] deals with pulmonary fibroblast MRC-5. The series is described as follows: cells. The protocol: (§2) 6 types of cancer cell lines of Lung adenocarcinoma cell A549, colorectal cancer cell HCT116, breast cancer cell MDA-MB-231, liver adenocarcinoma cell SK-HEP-1, stomach adenocarcinoma cell SNU638, and chronic myeloid leukemia cell K562,and a normal cell line of pulmonary fibroblast MRC-5 were purchased from Korean Cell Line Bank (Seoul, Korea).
as §1

In series [7] the test system is stomach adenocarcinoma cell SNU638. The series is described as follows: cells. The method, then: as §2, §1
Series [8] deals with breast cancer cell MDA-MB-231. The series is described as follows: cells. The method, then:
as §2, §1

Series [9] deals with chronic myeloid leukemia cell K562. The series is described as follows: cells. The method, then: as §2, §1
Series [10] concerns liver adenocarcinoma cell SK-HEP-1. The series is described as follows: cells. The protocol: as §2, §1
The subject of series [11] is Lung adenocarcinoma cell A549. Kind of series: cells. The method, then: as §2, §1
Series [12] concerns colorectal cancer cell HCT116. Kind of series: cells. The method, then: as §2, §1
Series [13] deals with HCT116 colorectal cancer xenograft. Kind of series: HCT116 xenograft animal model. In kind it is in vivo. The conditions noted are these: 10, 30 mg/kg intravenous. The protocol:
Cells of HCT116, a human-derived colorectal cancer cell line, were diluted to a concentration of 5×10^6 units/mL in RPMI (Roswell Park Memorial Institute) medium, and 0.2 mL of the diluted cells was injected subcutaneously to right flank of BALB/c mice (5-week old, male). When the size of the tumor reached about 100 mm^3, groups were randomly divided based on the size of the tumor.
Lenziamide A was administered by intravenous injection at a dose of 10 mg/body weight kg or 30 mg/body weight kg to the prepared xenograft animal models. A mixture mixed at a ratio of dimethyl sulfoxide: Cremophor: saline=0.5:0.5:9 was used as a negative control, and irinotecan was used as a positive control. Volume of the tumor (mm^3), body weight of the xenograft animal model (g), and final weight of the tumor (g) were measured from the first day of administration, and the results are shown in FIGS. 4A to 4C.

The mark [14] stands for this setting: Homo sapiens, read-out: IC50 HCT116-5-FU.
The mark [15] stands for this setting: Homo sapiens, HCT-116, read-out: IC50 HCT116.

pIC50: −log10 of the molar value. Like-named read-outs stand apart in the source and are kept apart here. Numbered stars: 1 amine (or outer) side, 2 acyl side, 3 side chain; on linkers, the order of the positions; unused ones are H or OH. Square brackets hold non-standard residues; d marks the D form. Peptide text beside a SMILES is read from it. NMeF = CN[CH](Cc1ccccc1)C(=O)O; X1 = O=C(C1CCCNN1[*:1])[*:2]; NMeV = CN[CH](C(=O)O)C(C)C; NMeS = CN[CH](CO)C(=O)O; NMeA = CN[CH](C)C(=O)O; βAla = NCCC(=O)O

As usually defined, the pIC50 is the IC50 on a negative log10 scale, so that one unit is a factor of ten.

Consider `CCC(C)C1NC(=O)C(Cc2ccccc2)N(C)C(=O)C2CCCNN2C(=O)C(CO)N(C)C(=O)C(CC(C)C)NC(=O)C(Cc2ccccc2)N(C)C(=O)C(C)NC(=O)C(C(C)C)N(C)C(=O)CCNC(=O)C(C)N(C)C1=O` (stereo not shown) [Lenziamide A] (cyclo([X1][NMeF]I[NMeA][βAla][NMeV]A[NMeF]L[NMeS]); configuration not given here), for which the “expression of E-cadherin” value in [1] is listed as “increased”. Further, the “expression of N-Cadherin and vimentin” value in [1] was “decreased”. For the same compound, the “early apoptosis cell population” value in the series with HCT116 cells (5 μM) was “about 20.37%”. In the series with HCT116 cells (5 μM), the “late apoptosis cell population” value is 51.40%. Also, in the series with HCT116 cells (different concentrations of lenziamide A), the apoptosis result is on record as “apoptosis increased dependent on the concentration”. Also, the “growth of HCT116-5-FU resistant cell line” value in series [2] is “effectively inhibited growth of HCT116-5-FU resistant cell line”. Further, the pIC50 in series [2] (72 h) is 6.38; in [6] (72 h) it was less than 4.70; in [7] (72 h) it was 6.36; in series [8] (72 h), 6.21; in series [9] (72 h), 6.11; in series [10] (72 h) it was 6.41. In addition, the results for the pIC50 in series [11] (72 h), in series [12] and in [12] (72 h) were 6.10, 6.44 and 6.43, respectively. In addition, the “Fold change (HCT116-5-FU/HCT116)” value in [2] (IC50 of HCT116-5-FU with respect to IC50 of HCT116) is 1.16. Besides, the “sub G1 cell accumulation (cell death)” value in series [3] (after G2/M arrest, high concentration) is given as “followed by sub G1 cell accumulation”. For the same compound, the “G2/M cell cycle arrest” value in series [3] (until 24 hours after treatment, 0-5 μM) is “G2/M cell cycle arrest was increased”. The “growth of tumor in the appendix” value in series [4] is reported as “also inhibited”. Further, the “metastasis of the tumor to other organs” value in [4] is recorded as “effectively inhibited”. For the same compound, the body weight entry in [5] was “without significant weight loss”. Further, the “growth of resistant tumor” value in series [5] is “effectively inhibited growth of resistant tumor”. Further, the “tumor growth (volume, final weight)” value in series [13] is listed as “concentration-dependent tumor growth inhibitory effect”. Further, in [13] (during administration period), the “body weight (toxicity)” value was “no significant weight decrease”.

For `CCc1c2c(nc3ccc(OC(=O)N4CCC(N5CCCCC5)CC4)cc13)-c1cc3c(c(=O)n1C2)COC(=O)[C@]3(O)CC` [Irinotecan], the “Fold change (HCT116-5-FU/HCT116)” value in [2] was determined as 3.72. For the same compound, the pIC50 in [2] (setting [14]) is 5.25; in [12] (setting [15]) it was 5.82.

On to `CC(C)CC1NC(C)C(Cc2ccccc2)N(C)C(=O)C(C)NC(=O)C(C(C)C)N(C)C(=O)CCNC(=O)C(C)NC(=O)C(C(C)C)NC(=O)C(Cc2ccccc2)N(C)C(=O)C2CCCNN2C(=O)C(CO)N(C)C1=O` (stereo not shown) [Lenziamide E], for which the pIC50 is less than 4.70 in series [6] (72 h); 5.88 in series [7] (72 h); 5.80 in series [8] (72 h); 5.92 in series [9] (72 h); 6.02 in series [10] (72 h); 5.75 in [11] (72 h). In series [12] (72 h), this compound had a pIC50 of 6.00.

With `CC(C)CC1NC(C)C(Cc2ccccc2)N(C)C(=O)C(C)NC(=O)C(C(C)C)N(C)C(=O)CCNC(=O)C(C)N(C)C(=O)C(C(C)C)NC(=O)C(Cc2ccccc2)N(C)C(=O)C2CCCNN2C(=O)C(CO)N(C)C1=O` (stereo not shown) [Lenziamide C], the pIC50 was less than 4.70 in [6] (72 h); 6.37 in [7] (72 h); 6.02 in series [8] (72 h); 6.19 in series [9] (72 h); 6.28 in series [10] (72 h); 6.12 in [11] (72 h). In series [12] (72 h), this compound had a pIC50 of 6.28.

`COc1cc([C@@H]2c3cc4c(cc3[C@@H](O[C@@H]3O[C@@H]5CO[C@@H](C)O[C@H]5[C@H](O)[C@H]3O)[C@H]3COC(=O)[C@H]23)OCO4)cc(OC)c1O` [Etoposide, reference compound]: the “Fold change (HCT116-5-FU/HCT116)” value in series [2] was determined as 2.53. Moreover, the pIC50 in series [2] (setting [14]) is 5.72; in [6] (Homo sapiens, MRC5, 72 h, read-out: IC50 MRC-5) it was 4.94; in series [7] (Homo sapiens, SNU-638, 72 h, read-out: IC50 SNU638), 6.32; in [8] (Homo sapiens, MDA-MB-231, 72 h, read-out: IC50 MDA-MB-231), 5.47; in [9] (Homo sapiens, K562, 72 h, read-out: IC50 K562), 6.12; in [10] (Homo sapiens, SK-HEP1, 72 h, read-out: IC50 SK-HEP-1), 6.35. Moreover, the pIC50 in series [11] (Homo sapiens, A549, 72 h, read-out: IC50 A549) is 6.23; in series [12] (Homo sapiens, HCT-116, 72 h, read-out: IC50 HCT116) it was 5.73; in series [12] (setting [15]) it was 6.12.

For the compound `CCC(C)C1NC(=O)C(Cc2c[nH]c3ccccc23)N(C)C(=O)C2CCCNN2C(=O)C(CO)N(C)C(=O)C(CC(C)C)NC(C)C(Cc2ccccc2)N(C)C(=O)C(C)NC(=O)C(C(C)C)N(C)C(=O)CCNC(=O)C(C)N(C)C1=O` (stereo not shown) [Lenziamide B], the pIC50 in series [6] (72 h) was less than 4.70; in series [7] (72 h) it was 6.60; in series [8] (72 h), 6.64; in [9] (72 h), 6.44; in series [10] (72 h), 6.66; in series [11] (72 h), 6.37. The compound further showed a pIC50 in [12] (72 h) of 6.70.

For `O=c1[nH]cc(F)c(=O)[nH]1` [5-fluorouracil], the “Fold change (HCT116-5-FU/HCT116)” value in series [2] came to 8.70. The pIC50 in [2] (setting [14]) was 4.44; in series [12] (setting [15]), 5.37.

(Values after US20260001911A1, “CYCLIC PEPTIDE COMPOUND CONTAINING PIPERAZIC ACID, METHOD OF PRODUCING SAME, AND USES OF SAME” (MolGenBio Co., Ltd., priority 2020, published 2026).)
